This is an account of results in US20260028354A1, “TETRAHYDRONAPHTHALENE DERIVATIVES AS ESTROGEN RECEPTOR DEGRADERS” (REGENT OF THE UNIVERSITY OF MICHIGAN, priority 2022, published 2026).

Assay [1] in a line: Cell growth assay (WST-8) for "B" compounds. The assay is classed as cell-based. The following applies: T47D, read-out: Cell growth Inhibition in T47D cell line IC50. In short, it runs like this: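 Four-day compound exposure of cells plated at 1500/well the day before. Read-out is WST-8 (10%, 2.5 h, 37 °C) absorbance at 450 nm, normalized to vehicle control over three independent repeats.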

The target of the next assay is ER (Homo sapiens (Human), UniProt P03372). Briefly: In-cell western blot analysis of ER for "B" compounds. The format is cell-based. Particulars: 16 hours, read-out: ICW DC50. In short, it runs like this: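 ER levels given as a percentage of untreated/DMSO-treated wells (100%). Detection used primary antibodies for 2 h at room temperature followed by 680 and 800 nm fluorescent secondaries at 1:1000 for 1 h, read by LI-COR imaging.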
Chain of ER (P03372 whole entry): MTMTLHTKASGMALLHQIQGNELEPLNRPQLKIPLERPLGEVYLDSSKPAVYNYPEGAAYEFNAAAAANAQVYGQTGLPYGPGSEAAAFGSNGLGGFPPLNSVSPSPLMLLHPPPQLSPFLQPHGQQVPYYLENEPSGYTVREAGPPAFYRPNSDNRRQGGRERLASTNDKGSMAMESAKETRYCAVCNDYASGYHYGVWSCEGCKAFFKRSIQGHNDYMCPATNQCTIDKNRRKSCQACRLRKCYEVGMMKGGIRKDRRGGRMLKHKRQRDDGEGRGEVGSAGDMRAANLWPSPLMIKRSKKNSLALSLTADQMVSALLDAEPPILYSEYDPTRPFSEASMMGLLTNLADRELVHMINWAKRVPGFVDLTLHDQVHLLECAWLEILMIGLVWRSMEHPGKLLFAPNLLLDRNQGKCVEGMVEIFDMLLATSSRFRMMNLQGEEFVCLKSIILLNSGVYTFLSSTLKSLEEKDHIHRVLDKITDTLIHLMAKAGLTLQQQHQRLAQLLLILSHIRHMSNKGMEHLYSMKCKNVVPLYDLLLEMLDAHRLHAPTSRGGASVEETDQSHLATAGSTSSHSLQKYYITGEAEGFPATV

The term pIC50 denotes −log10 of the IC50, conventionally taken in molar units.

pIC50: −log10 of the molar value. Where two headings read alike, the source gives them in different places.

`O=C1CCC(N2Cc3cc4c(cc3C2=O)OC[C@@H]2CN(C(=O)CN3CC(Nc5ccc([C@@H]6c7ccc(O)cc7CC[C@@H]6c6ccccc6)cc5)C3)CCN42)C(=O)N1` (stereo partly drawn) [Compound B204, 3-((S)-3-(2-(3-((4-((1R,2S)-6-hydroxy-2-phenyl-1,2,3,4-tetrahydronaphthalen-1-yl)phenyl)amino)azetidin-1-yl)acetyl)-8-oxo-1,2,3,4,4a,5,8,10-octahydro-9H-pyrazino[1′,2′:4,5][1,4]oxazino[2,3-f]isoindol-9-yl)piperidine-2,6-dione]: the pIC50 in assay [1] (T47D cell line) is > 9.00. Further, the DC50 on ER was < 0.01 µM.

On to `O=C1CCC(N2Cc3cc4c(cc3C2=O)OC[C@@H]2CN(C(=O)CN3CC5(C3)CN(c3ccc([C@@H]6c7ccc(O)cc7CC[C@@H]6c6ccccc6)cc3)C5)CCN42)C(=O)N1` (stereo partly drawn) [Compound B205, 3-((S)-3-(2-(6-(4-((1R,2S)-6-hydroxy-2-phenyl-1,2,3,4-tctrahydronaphthalen-1-yl)phenyl)-2,6-diazaspiro[3.3]heptan-2-yl)acetyl)-8-oxo-1,2,3,4,4a,5,8,10-octahydro-9H-pyrazino[1′,2′:4,5][1,4]oxazino[2,3-f]isoindol-9-yl)piperidine-2,6-dione], for which the pIC50 in assay [1] (T47D cell line) was 8.00 to 9.00. The DC50 at ER is < 0.01 µM.

With `O=C1CCC(N2Cc3cc4c(cc3C2=O)OC[C@@H]2CN(C(=O)CN3CC5(CCN(c6ccc([C@@H]7c8ccc(O)cc8CC[C@@H]7c7ccccc7)cc6)C5)C3)CCN42)C(=O)N1` (stereo partly drawn) [Compound B206, 3-((S)-3-(2-(6-(4-((1R,2S)-6-hydroxy-2-phenyl-1,2,3,4-tetrahydronaphthalen-1-yl)phenyl)-2,6-diazaspiro[3.4]octan-2-yl)acetyl)-8-oxo-1,2,3,4,4a,5,8,10-octahydro-9H-pyrazino[1′,2′:4,5][1,4]oxazino[2,3-f]isoindol-9-yl)piperidine-2,6-dione], the pIC50 in assay [1] (T47D cell line) is > 9.00. The DC50 at ER was < 0.01 µM.

Consider `O=C1CCC(N2Cc3cc4c(cc3C2=O)OC[C@@H]2CN(CC(=O)N3CC(Nc5ccc([C@@H]6c7ccc(O)cc7CC[C@@H]6c6ccccc6)cc5)C3)CCN42)C(=O)N1` (stereo partly drawn) [Compound B207, 3-((S)-3-(2-(3-((4-((1R,2S)-6-hydroxy-2-phenyl-1,2,3,4-tetrahydronaphthalen-1-yl)phenyl)amino)azetidin-1-yl)-2-oxoethyl)-8-oxo-1,2,3,4,4a,5,8,10-octahydro-9H-pyrazino[1′,2′:4,5][1,4]oxazino[2,3-f]isoindol-9-yl)piperidine-2,6-dione], for which the negative-log IC50 (pIC50) in assay [1] (T47D cell line) was > 9.00. In addition, the DC50 at ER was < 0.01 µM.

Consider `O=C1CCC(N2Cc3cc4c(cc3C2=O)OC[C@@H]2CN(CC(=O)N3CC5(C3)CN(c3ccc([C@@H]6c7ccc(O)cc7CC[C@@H]6c6ccccc6)cc3)C5)CCN42)C(=O)N1` (stereo partly drawn) [Compound B208, 3-((S)-3-(2-(6-(4-((1R,2S)-6-hydroxy-2-phenyl-1,2,3,4-tetrahydronaphthalen-1-yl)phenyl)-2,6-diazaspiro[3.3]heptan-2-yl)-2-oxoethyl)-8-oxo-1,2,3,4,4a,5,8,10-octahydro-9H-pyrazino[1′,2′:4,5][1,4]oxazino[2,3-f]isoindol-9-yl)piperidine-2,6-dione], for which, in assay [1] (T47D cell line), the pIC50 is > 9.00. For the same molecule, the DC50 on ER was < 0.01 µM.

In the case of `O=C1CCC(N2Cc3cc4c(cc3C2=O)OC[C@@H]2CN(CC(=O)N3CC5(CCN(c6ccc([C@@H]7c8ccc(O)cc8CC[C@@H]7c7ccccc7)cc6)C5)C3)CCN42)C(=O)N1` (stereo partly drawn) [Compound B209, 3-((S)-3-(2-(6-(4-((1R,2S)-6-hydroxy-2-phenyl-1,2,3,4-tetrahydronaphthalen-1-yl)phenyl)-2,6-diazaspiro[3.4]octan-2-yl)-2-oxoethyl)-8-oxo-1,2,3,4,4a,5,8,10-octahydro-9H-pyrazino[1′,2′:4,5][1,4]oxazino[2,3-f]isoindol-9-yl)piperidine-2,6-dione], in assay [1] (T47D cell line), the negative-log IC50 (pIC50) is > 9.00. For the same molecule, at ER, the DC50 is < 0.01 µM.

Take `COc1c2c(cc3c1CN(C1CCC(=O)NC1=O)C3=O)CN(C(=O)CN1CCC3(CC1)CCN(c1ccc([C@@H]4c5ccc(O)cc5CC[C@@H]4c4ccccc4)cc1)CC3)C2` (stereo partly drawn) [Compound B210, 3-(6-(2-(9-(4-((1R,2S)-6-hydroxy-2-phenyl-1,2,3,4-tetrahydronaphthalen-1-yl)phenyl)-3,9-diazaspiro[5.5]undecan-3-yl)acetyl)-4-methoxy-1-oxo-3,5,6,7-tetrahydropyrrolo[3,4-f]isoindol-2(1H)-yl)piperidine-2,6-dione]: the pIC50 in assay [1] (T47D cell line) is > 9.00. For the same molecule, the DC50 on ER was < 0.01 µM.

Take `O=C1CCC(N2Cc3cc4c(cc3C2=O)OC[C@@H]2CN(CC3CC5(CCN(c6ccc([C@@H]7c8ccc(O)cc8CC[C@@H]7c7ccccc7)cc6)CC5)C3)CCN42)C(=O)N1` (stereo partly drawn) [Compound B211, 3-((S)-3-((7-(4-((1R,2S)-6-hydroxy-2-phenyl-1,2,3,4-tetrahydronaphthalen-1-yl)phenyl)-7-azaspiro[3.5]nonan-2-yl)methyl)-8-oxo-1,2,3,4,4a,5,8,10-octahydro-9H-pyrazino[1′,2′:4,5][1,4]oxazino[2,3-f]isoindol-9-yl)piperidine-2,6-dione]: the pIC50 in assay [1] (T47D cell line) was 8.00 to 9.00. Besides, the DC50 on ER was < 0.01 µM.

Take `O=C1CCC(N2Cc3c(ccc4c3OCC43CCN(CC(=O)N4CC5(CCN(c6ccc([C@@H]7c8ccc(O)cc8CC[C@@H]7c7ccccc7)cc6)C5)C4)CC3)C2=O)C(=O)N1` (stereo partly drawn) [Compound B212, 3-(1′-(2-(6-(4-((1R,2S)-6-hydroxy-2-phenyl-1,2,3,4-tetrahydronaphthalen-1-yl)phenyl)-2,6-diazaspiro[3.4]octan-2-yl)-2-oxoethyl)-6-oxo-6,8-dihydro-2H,7H-spiro[furo[2,3-e]isoindole-3,4′-piperidin]-7-yl)piperidine-2,6-dione]: in assay [1], the pIC50 was > 9.00. For the same molecule, the DC50 at ER was < 0.01 µM.

As to `O=C1CCC(N2Cc3c(ccc4c3OCC43CCN(CC(=O)N4CCC5(CC4)CN(c4ccc([C@@H]6c7ccc(O)cc7CC[C@@H]6c6ccccc6)cc4)C5)CC3)C2=O)C(=O)N1` (stereo partly drawn) [Compound B213, 3-(1′-(2-(2-(4-((1R,2S)-6-hydroxy-2-phenyl-1,2,3,4-tetrahydronaphthalen-1-yl)phenyl)-2,7-diazaspiro[3.5]nonan-7-yl)-2-oxoethyl)-6-oxo-6,8-dihydro-2H,7H-spiro[furo[2,3-e]isoindole-3,4′-piperidin]-7-yl)piperidine-2,6-dione], the pIC50 in assay [1] was > 9.00. The DC50 at ER was < 0.01 µM.

For the molecule `O=C1CCC(N2Cc3c(ccc4c3OCC43CCN(C(=O)CN4CCC5(CC4)CN(c4ccc([C@@H]6c7ccc(O)cc7CC[C@@H]6c6ccccc6)cc4)C5)CC3)C2=O)C(=O)N1` (stereo partly drawn) [Compound B214, 3-(1′-(2-(2-(4-((1R,2S)-6-hydroxy-2-phenyl-1,2,3,4-tetrahydronaphthalen-1-yl)phenyl)-2,7-diazaspiro[3.5]nonan-7-yl)acctyl)-6-oxo-6,8-dihydro-2H,7H-spiro[furo[2,3-e]isoindole-3,4′-piperidin]-7-yl)piperidine-2,6-dione], the negative-log IC50 (pIC50) in assay [1] (T47D cell line) is > 9.00. For the same molecule, the DC50 at ER was < 0.01 µM.

As to `O=C1CCC(N2Cc3c(ccc4c3OC[C@H]3CN(C[C@@H]5CCN(c6ccc([C@@H]7c8ccc(O)cc8CC[C@@H]7c7ccccc7)cc6)C5)CCN43)C2=O)C(=O)N1` (stereo partly drawn) [Compound B215, 3-((R)-7-(((S)-1-(4-((1R,2S)-6-hydroxy-2-phenyl-1,2,3,4-tetrahydronaphthalen-1-yl)phenyl)pyrrolidin-3-yl)methyl)-1-oxo-1,3,5,5a,6,7,8,9-octahydro-2H-pyrazino[1′,2′:4,5][1,4]oxazino[2,3-e]isoindol-2-yl)piperidine-2,6-dione], the pIC50 in assay [1] (T47D cell line) was 8.00 to 9.00. Besides, the DC50 at ER lay within 0.01 to 0.1 µM.
